“And” between values parts separate entries of the source, which are not always exact repeats. Equal entries are not always repeated.
Test system: 377384-186-R-J1-PDC complex spheroid viability
Assay: Anticancer human tumor 377384-186-R-J1-PDC patient-derived pancreatic carcinoma cell line growth inhibition [CLK]
Settings: for viability, T/C: stronger effect = lower value
Excerpt: A high-throughput screen of multi-cell type tumor spheroids was designed to identify active combinations of […] and targeted small molecules. Complex spheroids include a stromal component modeled by human endothelial cells (HUVEC) and fibroblasts modeled by human mesenchymal stem cells (MSCs). The concentration ranges selected for each drug and investigational agent were based upon clinically achievable concentrations if the clinical Cmax of the agent was known.
Compounds. The drugs and investigational agents: cirtuvivint (SM08502; NSC835563), CC-671 (NSC850746), vemurafenib (NSC761431), tapotoclax (NSC804041), sotorasib (NSC818433), adagrasib (NSC831453), MRTX-1133 (NSC836407), BAY2416964 (NSC825713), copanlisib (NSC816437), inavolisib (NSC800729), abemaciclib (NSC768073), osimertinib (NSC779217), entinostat (NSC756642), eltanexor (KPT-8602, NSC794443), venetoclax (NSC766270), ceralasertib (NSC777638), bortezomib (NSC756655), olaparib (NSC753686), talazoparib (NSC767125), alisertib (NSC759677), peposertib (NSC802822), gemcitabine (NSC613327), 5-fluorouracil (NSC19893), SN-38 (NSC673596), oxaliplatin (NSC266046), paclitaxel (NSC125973), and doxorubicin (NSC123127), were obtained from the National Cancer Institute (NCI) Developmental Therapeutics Program Chemical Repository. The FDA-approved anticancer drug set is available from the Developmental Therapeutics Program at https://dtp.cancer.gov/organization/dscb/obtaining/available plates.htm. […] The stock solutions were prepared in dimethyl sulfoxide (DMSO, Sigma-Aldrich, St. Louis, MO, cat. D2650), except for the platinum complexes which were prepared in saline (Quality Biological, Gaithersburg, MD, cat. 114-055-101), at 800-fold the tested concentration and stored at -70 degrees C prior to their use. All drugs and investigational agents were tested over a range starting from a high concentration at or near the clinical Cmax and decreasing in half-log increments. If the clinical Cmax for an agent had not been determined, the highest concentration tested was 10 microM.
Cell Culture. All cells were maintained in an incubator at 37 degrees C and 5% CO2 with 95% humidity. The PDC lines were cultured according to standard operating procedures established by the NCI PDMR. Briefly, all PDCs were thawed and cultured in Matrigel-coated flasks prepared with a working solution of 1X Ham's F-12 nutrient mix, without supplementation (Invitrogen, Waltham, MA, cat. 11765054), 100 U/mL penicillin-streptomycin (Invitrogen, cat. 15140122), and 2.5% Matrigel (Corning Inc., Corning, NY, cat. 354248) for the first three passages. The 947758-054-R-J2-PDC line was cultured in 6B/Colon 1A media, which includes advanced DMEM/F-12 (Thermo Fisher Scientific, cat. 12634028), 10 mM HEPES (Thermo Fisher Scientific, cat. 15630080), 1X GlutaMAX supplement (Thermo Fisher Scientific, cat. 35050061), 0.1 mg/mL primocin (InvivoGen, cat. ant-pm-2), 10% defined fetal bovine serum, heat inactivated (HyClone Laboratories Inc., cat. SH30070.03HI), 1.25 mM N-Acetyl-L-cysteine (Sigma-Aldrich, cat. A9165), 10 mM nicotinamide (Sigma-Aldrich, cat. N0636), 1X B-27 supplement (Thermo Fisher Scientific, cat. 17504044), 1X N-2 supplement (Thermo Fisher Scientific, cat. 17502048), and 10 microM Y-27632 dihydrochloride (Tocris Bioscience, cat. 1254). The 876862-298-R-J1-PDC was cultured in 6E media, which includes all 6B/Colon 1A media components plus 50% L-WRN conditioned media (ATCC, cat. CRL-3276), 50 ng/mL recombinant human EGF recombinant protein (hEGF; Thermo Fisher Scientific, cat. PHG0311), 10 ng/mL recombinant human fibroblast growth factor 10 (hGFG-10; PeproTech, cat. 100-26), 1 ng/mL recombinant human fibroblast growth factor 2 (hFGF-2; PeproTech, cat. 100-18B), and 1 µM prostaglandin E2 (PGE2; Tocris, cat. 2296). The 227483-062-R1-J1-PDC line was cultured in Panc media, containing all 6E components except hFGF-2, with the addition of 500 nM SB-431542 (Selleckchem, cat. S1067) and 10 nM gastrin (Tocris, cat. 3006). […]
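Also: spheroids exposed to agents for 7 days before reading.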
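For viability, T/C in this document: luminescence signal used as a stand-in for viable cells.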

Structure (SMILES): CC(C)CC(NC(=O)C(Cc1ccccc1)NC(=O)c1cnccn1)B(O)O (configuration not stated)
- viability, T/C (compound 0.000949 µM): 76.6% and 65.6%
- viability, T/C (compound 0.003 µM): 1.85% and 2.08%
- viability, T/C (compound 0.00949 µM): 0.32% and 0.23%
- viability, T/C (compound 0.03 µM): 0.26% and 0.38%
- viability, T/C (compound 0.0949 µM): 0.18% and 0.14%
- viability, T/C (compound 0.3 µM): 0.78% and 0.14%
- IC50 (curve of compound): 1.43 nM and 1.26 nM

Structure (SMILES): C=C(F)C(=O)N1CCN(c2nc(OCC3CCCN3C)nc3c2CCN(c2cccc4cccc(Cl)c24)C3)CC1CC#N (configuration not stated)
- viability, T/C (compound 0.0316 µM): 88.4% and 94.1%
- viability, T/C (compound 0.1 µM): 97.7% and 89.9%
- viability, T/C (compound 0.316 µM): 86.1% and 91.8%
- viability, T/C (compound 1 µM): 73.6% and 70.8%
- viability, T/C (compound 3.16 µM): 21.3% and 26.5%
- viability, T/C (compound 10 µM): 0.31% and 0.54%
- IC50 (curve of compound): 1670 nM and 1730 nM

Structure (SMILES): CC(Nc1ccc2c(c1)OCCn1cc(N3C(=O)OCC3C(F)F)nc1-2)C(N)=O (configuration not stated)
- viability, T/C (compound 0.0316 µM): 86.6% and 85.8%
- viability, T/C (compound 0.1 µM): 90.3% and 69.1%
- viability, T/C (compound 0.316 µM): 59.9% and 53%
- viability, T/C (compound 1 µM): 56.3% and 54%
- viability, T/C (compound 3.16 µM): 49.6% and 35.9%
- viability, T/C (compound 10 µM): 43.6% and 36.5%

Structure (SMILES): COc1cccc2c1C(=O)c1c(O)c3c(c(O)c1C2=O)CC(O)(C(=O)CO)CC3OC1CC(N)C(O)C(C)O1 (configuration not stated) + CNC(=O)c1ccc(Nc2nc(OC3CCCC3)c3c(-c4ccc5nc(C)oc5c4)c[nH]c3n2)c(OC)c1
- IC50 (curve of first compound, second compound 0.0316 µM): < 31.6 nM
- IC50 (curve of first compound, second compound 0.1 µM): < 31.6 nM
- IC50 (curve of first compound, second compound 0.316 µM): < 31.6 nM
- IC50 (curve of first compound, second compound 1 µM): < 31.6 nM
- IC50 (curve of first compound, second compound 3.16 µM): < 31.6 nM
- IC50 (curve of first compound, second compound 10 µM): < 31.6 nM
- viability, T/C (second compound 0.0316 µM, first compound 0.0316 µM): 10.2%
- viability, T/C (second compound 0.0316 µM, first compound 0.1 µM): 4.37%
- viability, T/C (second compound 0.0316 µM, first compound 0.316 µM): 1.55%
- viability, T/C (second compound 0.0316 µM, first compound 1 µM): 0.38%
- viability, T/C (second compound 0.0316 µM, first compound 3.16 µM): 3.07%
- viability, T/C (second compound 0.0316 µM, first compound 10 µM): 5.83%
- viability, T/C (second compound 0.1 µM, first compound 0.0316 µM): 9.1%
- viability, T/C (second compound 0.1 µM, first compound 0.1 µM): 3.91%
- viability, T/C (second compound 0.1 µM, first compound 0.316 µM): 1.38%
- viability, T/C (second compound 0.1 µM, first compound 1 µM): 0.45%
- viability, T/C (second compound 0.1 µM, first compound 3.16 µM): 3.75%
- viability, T/C (second compound 0.1 µM, first compound 10 µM): 7.17%
- viability, T/C (second compound 0.316 µM, first compound 0.0316 µM): 9.14%
- viability, T/C (second compound 0.316 µM, first compound 0.1 µM): 3.32%
- viability, T/C (second compound 0.316 µM, first compound 0.316 µM): 1.45%
- viability, T/C (second compound 0.316 µM, first compound 1 µM): 0.82%
- viability, T/C (second compound 0.316 µM, first compound 3.16 µM): 4.73%
- viability, T/C (second compound 0.316 µM, first compound 10 µM): 9.99%
- viability, T/C (second compound 1 µM, first compound 0.0316 µM): 7.32%
- viability, T/C (second compound 1 µM, first compound 0.1 µM): 2.1%
- viability, T/C (second compound 1 µM, first compound 0.316 µM): 0.65%
- viability, T/C (second compound 1 µM, first compound 1 µM): 0.52%
- viability, T/C (second compound 1 µM, first compound 3.16 µM): 3.63%
- viability, T/C (second compound 1 µM, first compound 10 µM): 11.6%
- viability, T/C (second compound 3.16 µM, first compound 0.0316 µM): 9.23%
- viability, T/C (second compound 3.16 µM, first compound 0.1 µM): 1.54%
- viability, T/C (second compound 3.16 µM, first compound 0.316 µM): 0.4%
- viability, T/C (second compound 3.16 µM, first compound 1 µM): 0.63%
- viability, T/C (second compound 3.16 µM, first compound 3.16 µM): 5.3%
- viability, T/C (second compound 3.16 µM, first compound 10 µM): 7.54%
- viability, T/C (second compound 10 µM, first compound 0.0316 µM): 7.12%
- viability, T/C (second compound 10 µM, first compound 0.1 µM): 2.27%
- viability, T/C (second compound 10 µM, first compound 0.316 µM): 0.51%
- viability, T/C (second compound 10 µM, first compound 1 µM): 1.07%
- viability, T/C (second compound 10 µM, first compound 3.16 µM): 5.51%
- viability, T/C (second compound 10 µM, first compound 10 µM): 9.57%

From PubChem BioAssay AID2060616 (Molecular Pharmacology Branch, DTP, NCI, 2025)
